Here are results for 20 compounds from patent publication US10183952B2, “Thienopyrroles as histone demethylase inhibitors” (ISTITUTO EUROPEO DI ONCOLOGIA S.R.L., priority 2014, dated 2019).

One test concerns human leukemia NB4 cells. Description: Cell growth, CellTiter-Fluor Cell Viability Assay, NB4. Type of test: cell-based. As to conditions: NB-4, 48 h incubation, read-out: IC50 against human leukemia NB4 cells. From the text:
(§1) The CellTiter-Fluor™ Cell Viability Assay measures the conserved and constitutive protease activity within live cells and therefore acts as a marker for cell viability.
(§2) CellTiter-Flor® (Promega) is as a nonlytic, single-reagent-addition fluorescence assay that measures the relative number of living cells in a culture population after experimental manipulation. The CellTiter-Fluor™ Cell Viability Assay measures the conserved and constitutive protease activity within live cells and therefore acts as a marker for cell viability.
(§3) Human leukemia MV4-11 cells, (obtained from the Deutsche Sammlung von Mikroorganismen und Zellkulturen, ACC 102) or NB4 cells, (obtained from the Deutsche Sammlung von Mikroorganismen und Zellkulturen) in exponential growth, were incubated for 48 h with different concentrations of the inhibitors. After 48 h a volume of CellTiter-Fluor® Reagent equal to one fifth of volume of cell culture medium was added. The content was mixed and incubates for at least 90 min at 37° C. degree to obtain a stable signal. The fluorescence was recorded using an excitation wavelength of 360 nm and an emission at 535 nm. The IC50 was calculated using GraphPad Software.

Test [1] has as its system human leukemia MV4-11 cells. The test can be described thus: Cell growth, CellTiter-Fluor Cell Viability Assay, MV4-11. Type of test: cell-based. As to conditions: 48 h incubation, read-out: IC50 against human leukemia MV4-11 cells.
Excerpt: as §1, §2, §3

Test [2] addresses human recombinant KDM1A/CoREST protein (Homo sapiens, UniProt O60341). Description: Assay of enzyme inhibition of KDM1A (LSD1), TR-FRET. A general note: In TR-FRET formats the signal depends on donor and acceptor labels being close together.
Experimental: The intensity of the light emission is proportional to the level of biotinylated reaction product. The complex of human recombinant KDM1A/CoREST protein was produced in E. coli as separate proteins and co-purified as previously described.
Demethylase reaction was started by the addition of 50 nM histone H3K4 monomethylated.
The resulting mixture was incubated in the dark for 1 h at RT.

Where a name gives a salt, the structure may show the parent alone. Bounds are passed on as bounds.

In general, IC50 refers to the concentration that gives 50% inhibition.

Take `Cn1c(C(=O)Nc2ccccc2COc2ccc(OCC3CCNCC3)cc2)cc2sccc21` [Example 2, 4-methyl-N-[2-[[4-(4-piperidylmethoxy)phenoxy]methyl]phenyl]thieno-[3,2-b]pyrrole-5-carboxamide]: the results for the IC50 (in the test with human leukemia NB4 cells; in test [1]; in test [2]) were less than 20 µM, less than 10 µM and less than 10 µM, respectively.

`Cc1ccc(COc2ccc(OCC3CCNC3)cc2)c(NC(=O)c2cc3sccc3n2C)c1` (stereo not drawn) [Example 55, 4-Methyl-N-[5-methyl-2-[[4-(pyrrolidin-3-ylmethoxy)phenoxy]methyl]phenyl]thieno[3,2-b]pyrrole-5-carboxamide]: the IC50 was less than 20 µM in the test on human leukemia NB4 cells, less than 10 µM in test [1] and less than 10 µM in test [2].

Regarding `Cn1c(C(=O)Nc2ccccc2COc2ccc(O[C@H]3CC[C@H](N)CC3)cc2)cc2sccc21` [Example 14, N-[2-[[4-(trans-4-aminocyclohexoxy)phenoxy]methyl]phenyl]-4-methyl-thieno[3,2-b]pyrrole-5-carboxamide], the IC50 in the test with human leukemia NB4 cells is less than 20 µM; in test [1], less than 10 µM; in test [2], less than 10 µM.

Turning to `Cn1c(C(=O)Nc2ccccc2COc2ccc(OC3CCCNCC3)cc2)cc2sccc21` (stereo not drawn) [Example 7, N-[2-[[4-(azepan-4-yloxy)phenoxy]methyl]phenyl]-4-methyl-thieno[3,2-b]pyrrole-5-carboxamide hydrochloride], the IC50 was less than 20 µM in the test on human leukemia NB4 cells, less than 10 µM in test [1] and less than 10 µM in test [2].

As for `Cn1c(C(=O)Nc2ccccc2CCc2ccc(OC3CCNCC3)cc2)cc2sccc21` [Example 61, 4-Methyl-N-[2-[2-[4-(4-piperidyloxy)phenyl]ethyl]phenyl]thieno[3,2-b]pyrrole-5-carboxamide hydrochloride], the IC50 in the test with human leukemia NB4 cells is less than 20 µM; in test [1] it was less than 10 µM; in test [2] it was less than 10 µM.

As for `Cn1c(C(=O)Nc2cccc(CN3CCOCC3)c2COc2ccc(OC3CCNCC3)cc2)cc2sccc21` [Example 54, 4-Methyl-N-[3-(morpholinomethyl)-2-[[4-(4-piperidyloxy)phenoxy]methyl]phenyl]thieno[3,2-b]pyrrole-5-carboxamide dihydrochloride], the results for the IC50 (in the test on human leukemia NB4 cells; in test [1]; in test [2]) were less than 20 µM, less than 10 µM and less than 10 µM, respectively.

As to `CCN1CCC(Oc2ccc(OCc3ccccc3NC(=O)c3cc4sccc4n3C)cc2)CC1` [Example 3, N-[2-[[4-[(1-ethyl-4-piperidyl)oxy]phenoxy]methyl]phenyl]-4-methyl-thieno[3,2-b]pyrrole-5-carboxamide], the IC50 is less than 20 µM with human leukemia NB4 cells, less than 10 µM in test [1] and less than 10 µM in test [2].

Take `Cn1c(C(=O)Nc2ccccc2COc2ccc(OC3CCNCC3)cc2)cc2sccc21` [Example 1, 4-Methyl-N-[2-[[4-(4-piperidyloxy)phenoxy]methyl]phenyl]thieno[3,2-b]pyrrole-5-carboxamide]: the IC50 with human leukemia NB4 cells was less than 20 µM; in test [1] it was less than 10 µM; in test [2], less than 10 µM.

As to `CN1CCCC(COc2cccc(NC(=O)c3cc4sccc4n3C)c2)C1` (stereo not drawn) [Example 19, 4-methyl-N-[3-[(1-methyl-3-piperidyl)methoxy]phenyl]thieno[3,2-b]pyrrole-5-carboxamide], the figures for the IC50 (with human leukemia NB4 cells; in test [1]; in test [2]) were less than 20 µM, less than 10 µM and less than 10 µM, respectively.

Regarding `Cn1c(C(=O)Nc2cccc(CCc3ccc(OC4CCNCC4)cc3)c2)cc2sccc21` [Example 62, 4-Methyl-N-[3-[2-[4-(4-piperidyloxy)phenyl]ethyl]phenyl]thieno[3,2-b]pyrrole-5-carboxamide hydrochloride], the concentration for half-maximal inhibition (IC50) in the test with human leukemia NB4 cells is less than 20 µM; in test [1], less than 10 µM; in test [2] it was less than 10 µM.

Take `CN1CCC(Oc2ccc(OCc3cccc(NC(=O)c4cc5sccc5n4C)c3)cc2)CC1` [Example 15, 4-methyl-N-[3-[[4-[(1-methyl-4-piperidyl)oxy]phenoxy]methyl]phenyl]thieno[3,2-b]pyrrole-5-carboxamide]: the IC50 with human leukemia NB4 cells was less than 20 µM; in test [1] it was less than 10 µM; in test [2], less than 10 µM.

As for `CCn1c(C(=O)Nc2ccccc2COc2ccc(OC3CCN(C)CC3)cc2)cc2sccc21` [Example 12, 4-ethyl-N-[2-[[4-[(1-methyl-4-piperidyl)oxy]phenoxy]methyl]phenyl]thieno[3,2-b]pyrrole-5-carboxamide], the IC50 in the test on human leukemia NB4 cells was less than 20 µM; in test [1], less than 10 µM; in test [2] it was less than 10 µM.

On to `Cn1c(C(=O)Nc2ccccc2COc2ccc(O[C@H]3CC[C@@H](N)CC3)cc2)cc2sccc21` [Example 9, N-[2-[[4-(cis-4-aminocyclohexoxy)phenoxy]methyl]phenyl]-4-methyl-thieno[3,2-b]pyrrole-5-carboxamide], for which the IC50 with human leukemia NB4 cells is less than 20 µM; in test [1], less than 10 µM; in test [2], less than 10 µM.

As for `COCc1cccc(NC(=O)c2cc3sccc3n2C)c1COc1ccc(OC[C@H]2CCNC2)cc1` [Example 49, N-[3-(Methoxymethyl)-2-[[4-[[(3S)-pyrrolidin-3-yl]methoxy]phenoxy]methyl]phenyl]-4-methyl-thieno[3,2-b]pyrrole-5-carboxamide hydrochloride], the IC50 in the test with human leukemia NB4 cells is less than 20 µM; in test [1] it was less than 10 µM; in test [2], less than 10 µM.

As for `CCn1c(C(=O)Nc2cccc(COc3ccc(OC4CCNCC4)cc3)c2)cc2sccc21` [Example 6, 4-ethyl-N-[3-[[4-(4-piperidyloxy)phenoxy]methyl]phenyl]thieno[3,2-b]pyrrole-5-carboxamide], the values for the IC50 (in the test on human leukemia NB4 cells; in test [1]; in test [2]) were less than 20 µM, less than 10 µM and less than 10 µM, respectively.

On to `CCOCc1cccc(NC(=O)c2cc3sccc3n2C)c1COc1ccc(OC[C@@H]2CCNC2)cc1` [Example 52, N-[3-(Ethoxymethyl)-2-[[4-[[(3R)-pyrrolidin-3-yl]methoxy]phenoxy]methyl]phenyl]-4-methyl-thieno[3,2-b]pyrrole-5-carboxamide hydrochloride], for which the IC50 in the test on human leukemia NB4 cells is less than 20 µM; in test [1], less than 10 µM; in test [2], less than 10 µM.

On to `CCn1c(C(=O)Nc2cccc(COC)c2COc2ccc(OC[C@@H]3CCNC3)cc2)cc2sccc21` [Example 53, 4-Ethyl-N-[3-(methoxymethyl)-2-[[4-[[(3R)-pyrrolidin-3-yl]methoxy]phenoxy]methyl]phenyl]thieno[3,2-b]pyrrole-5-carboxamide; trifluoroacetic acid], for which the IC50 is less than 20 µM in the test on human leukemia NB4 cells, less than 10 µM in test [1] and less than 10 µM in test [2].

With `CN1CCC(Oc2ccc(OCc3ccccc3NC(=O)c3cc4sccc4n3C)cc2)CC1` [Example 13, 4-methyl-N-[2-[[4-[(1-methyl-4-piperidyl)oxy]phenoxy]methyl]phenyl]thieno[3,2-b]pyrrole-5-carboxamide], the results for the IC50 (in the test with human leukemia NB4 cells; in test [1]; in test [2]) were less than 20 µM, less than 10 µM and less than 10 µM, respectively.

For `CC(C)OCc1cccc(NC(=O)c2cc3sccc3n2C)c1COc1ccc(OC2CCNCC2)cc1` [Example 51, N-[3-(Isopropoxymethyl)-2-[[4-(4-piperidyloxy)phenoxy]methyl]phenyl]-4-methyl-thieno[3,2-b]pyrrole-5-carboxamide], the IC50 with human leukemia NB4 cells was less than 20 µM; in test [1] it was less than 10 µM; in test [2], less than 10 µM.

As for `Cn1c(C(=O)Nc2ccccc2COc2ccc(OC[C@H]3CCNC3)cc2)cc2sccc21` [Example 11, 4-methyl-N-[2-[[4-[[(3S)-pyrrolidin-3-yl]methoxy]phenoxy]methyl]phenyl]thieno[3,2-b]pyrrole-5-carboxamide], the IC50 was less than 20 µM in the test on human leukemia NB4 cells, less than 10 µM in test [1] and less than 10 µM in test [2].
